Test results: patent US20110150976A1, “TRANSDERMAL DELIVERY OF OLIGOSACCHARIDES” (TRANSPHARMA MEDICAL LTD., priority 2008, published 2011)
Like-named read-outs stand apart in the source and are kept apart here.

Key:
[1] = parameters: species or system pigs; conditions: pig, in vivo
Protocol: Transdermal delivery of fondaparinux from a printed patch through micro-channels generated in pig skin by the […] apparatus was evaluated. The experiment included the following groups: • 1. […] To prepare the printed patches containing fondaparinux, a concentrated reconstituted solution of Arixtra® (fondaparinux sodium) was applied onto the patch and then air-dried. Each patch was affixed to the […] treated skin for 24 hours.

[2] = Histological assessment of skin after micro-channel generation and treatment with fondaparinux; type: in vivo; conditions: pigs, 450 MCs/cm^2, dried patch 1.25 mg, biopsies 13 and 22.5 hours post application
Protocol: Histological assessments were performed in order to determine the effect of application of a high concentration of fondaparinux to skin in which micro-channels have been generated. Pigs were treated with […] apparatus to generate micro-channels at a density of 450 MCs/cm^2 (burst length of 6000 μsec). […] All biopsies (8 mm diameter) were fixed in 4% formaldehyde buffer for at least 48 hrs followed by staining with eosin and hematoxylin (H&E).

[3] = parameters: species or system pigs; conditions: pig, in vivo; remark: listed apart in the source
Protocol: Transdermal delivery of fondaparinux from a silicon pouch containing the pentasaccharide in solution through micro-channels generated in pig skin by the […] apparatus was evaluated. The experiment included the following groups: • 1.

[4] = In-vitro dissolution of printed patches; type: physicochemical; conditions: printed patches 5 mg fondaparinux with 3.6 mg NaCl, from lyophilized Arixtra
Protocol: As the printed patches were prepared following lyophilization of the Arixtra® for injection, 5 mg fondaparinux in each patch contained 3.6 mg of NaCl (42% of the total patch solids).

[5] = human; cited from earlier work

CO[C@H]1O[C@H](COS(=O)(=O)O)[C@@H](O[C@@H]2O[C@@H](C(=O)O)[C@@H](O[C@H]3O[C@H](COS(=O)(=O)O)[C@@H](O[C@@H]4O[C@H](C(=O)O)[C@@H](O[C@H]5O[C@H](COS(=O)(=O)O)[C@@H](O)[C@H](O)[C@H]5NS(=O)(=O)O)[C@H](O)[C@H]4O)[C@H](OS(=O)(=O)O)[C@H]3NS(=O)(=O)O)[C@H](O)[C@H]2OS(=O)(=O)O)[C@H](O)[C@H]1NS(=O)(=O)O [fondaparinux]
bioavailability from printed patches ([1]; 5 mg): 11-17%
% BA (bioavailability) ([1]; sc, 1 mg): 100%
AUC ([1]; sc, 1 mg): 291 1.25 ± 2242.07 ng*h/ml
Tmax ([1]; sc, 1 mg): 2 h
abnormalities in the skin tissue (histology, H&E) [2]: no abnormalities
signs of bleeding at the site of the treated skin (histology, H&E) [2]: no signs of bleeding
AUC ([3]; sc, 1 mg): 1533.33 ± 1303.96 ng·h/mL
Cmax ([3]; sc, 1 mg): 235.72 ± 47.79 ng/mL
AUC ([3]; topical or ocular, 28 mg): 5659.33 ± 956.94 ng·h/mL
Cmax ([3]; topical or ocular, 28 mg): 709.74 ± 103.61 ng/mL
in-vitro dissolution of printed patches [4]: ~85%
half-life [5]: approximately 17 hours
